# Values quoted from earlier work, collected in US7959936B2, “Emulsifications-stable pesticidal composition” (Syngenta Crop Protection, Inc., priority 2003, dated 2011).
# Where two headings read alike, the source gives them in different places.
# Columns and labels:
# [1] = 25° C
# Rabbit [2] = system: Rabbit
# Rabbit [3] = conditions: no unit printed for this line
# Rabbit [4] = system: Rabbit; remark: listed apart in the source
# Rabbit [5] = system: Rabbit; remark: listed apart in the source
substance,measurement,setting,value
2-(thiazol-4-ine)benzimidazole [Thiabendazole],"Solubility, 1,2-dichloroethane",20° C.,0.81 g/L
same,"Solubility, Acetone",20° C.,2.43 g/L
same,"Solubility, Ethyl acetate",20° C.,1.49 g/L
same,"Solubility, Methanol",20° C.,8.28 g/L
same,"Solubility, Xylene",20° C.,0.13 g/L
same,"Solubility, n-Hexane",20° C.,<0.01 g/L
same,"Solubility, n-Octanol",20° C.,3.91 g/L
same,"Solubility, Water","20° C., pH4",0.16 g/L
same,"Solubility, Water","20° C., pH7",0.03 g/L
same,solubility in short-chain alcohols,such as methyl alcohol,comparatively satisfactory solubility
same,solubility in water,water,practically insoluble
same,solubility in typical industrial solvents,xylene and petroleum-based solvents,only slightly soluble
same,Vapor pressure,[1],Vapor pressure: 4.6 × 10^−4 mPa (25° C)
same,Acute oral toxicity (LD50: mg/kg),Mouse,"3,600 mg/kg"
same,Acute oral toxicity (LD50: mg/kg),Rat,"3,100 mg/kg"
same,Acute oral toxicity (LD50: mg/kg),Rabbit [2],"3,800 mg/kg"
same,Acute percutaneous toxicity,Rabbit [3],"<2,000"
same,Irritability Skin,Rabbit [4],Non-irritating
same,Irritability Mucous membrane,Rabbit [5],Non-irritating
same,Antigenicity,Guinea pig,None
same,Acute oral toxicity LD50 (mg/kg),Quail,"<2,250 mg/kg"
same,Acute oral toxicity LD50 (mg/kg),Mallard duck,"5,620 mg/kg"
same,TLm (96 hrs),Bluegill,19 mg/L
same,TLm (96 hrs),Rainbow trout,0.5 mg/L
